Experimental data published in ChEMBL document CHEMBL1201862, “PubChem BioAssay data set” (2004).
“And” between values parts separate entries of the source, which are not always exact repeats. Equal entries are not always repeated. The source made the active and inactive calls.

Experiments:
[1] = biological target: T1, Scavenger receptor class B member 1 (Mus musculus, UniProt Q61009); assay: mouse SR-BI DiI-HDL transfer blockers – ldlA[mSR-BI] CHO cells, fluorescence plate reader, dry powder, set 9, dose response (AID 623880); assay type: functional, cell-based
T1 sequence (Q61009 whole entry): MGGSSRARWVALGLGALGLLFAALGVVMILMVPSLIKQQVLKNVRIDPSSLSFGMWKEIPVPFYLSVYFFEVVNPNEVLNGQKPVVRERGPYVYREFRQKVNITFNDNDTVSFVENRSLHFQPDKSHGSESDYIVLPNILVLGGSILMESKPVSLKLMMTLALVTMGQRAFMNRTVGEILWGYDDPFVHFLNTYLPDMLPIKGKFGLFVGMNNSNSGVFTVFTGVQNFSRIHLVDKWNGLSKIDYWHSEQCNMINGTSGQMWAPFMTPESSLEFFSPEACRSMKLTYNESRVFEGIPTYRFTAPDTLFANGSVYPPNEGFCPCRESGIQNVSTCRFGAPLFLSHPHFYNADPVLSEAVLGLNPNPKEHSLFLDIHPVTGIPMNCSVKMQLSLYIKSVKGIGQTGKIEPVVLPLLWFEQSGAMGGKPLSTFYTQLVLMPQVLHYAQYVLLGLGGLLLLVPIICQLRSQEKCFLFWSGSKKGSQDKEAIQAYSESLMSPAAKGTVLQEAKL

[2] = biological target: T1, Scavenger receptor class B member 1; assay: blockers of DiI-HDL lipid transfer via SR-BI – cell-based, ldlA[mSR-BI] CHO, DiI fluorescence, dry powder, set 10, dose response (AID 624029); assay type: functional
[3] = biological target: T2, Trace amine-associated receptor 1 (Homo sapiens, UniProt Q96RJ0); assay: Counterscreen for agonists of the human trace amine associated receptor 1 (hTAAR1): Fluorescence-based cell-based high throughput dose response assay to identify hTAAR1 agonist that also desensitize TAAR1 receptor response.; assay type: functional
T2 sequence (Q96RJ0 whole entry): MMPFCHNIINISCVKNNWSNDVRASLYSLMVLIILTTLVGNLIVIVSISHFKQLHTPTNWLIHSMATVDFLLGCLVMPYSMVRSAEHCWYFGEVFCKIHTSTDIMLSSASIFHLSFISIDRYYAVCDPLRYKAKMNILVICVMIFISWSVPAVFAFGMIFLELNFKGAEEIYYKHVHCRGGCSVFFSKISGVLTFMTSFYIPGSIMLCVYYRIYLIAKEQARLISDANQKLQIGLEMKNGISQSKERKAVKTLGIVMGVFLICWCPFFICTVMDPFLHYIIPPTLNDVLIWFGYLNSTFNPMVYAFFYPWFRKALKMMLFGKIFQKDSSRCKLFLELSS

[4] = biological target: T2, Trace amine-associated receptor 1; assay: Fluorescence-based cell-based high throughput dose response assay to identify agonists of the human trace amine associated receptor 1 (TAAR1).; assay type: functional
cells [5] = assay type: functional, cell-based
cells [6] = assay type: functional, cell-based; remark: listed apart in the source
[7] = biological target: T3, Methionyl-tRNA synthetase, putative (Trypanosoma brucei brucei, UniProt Q38C91); assay type: functional, Trypanosoma brucei brucei strain 927/4 GUTat10.1
T3 sequence (Q38C91 whole entry): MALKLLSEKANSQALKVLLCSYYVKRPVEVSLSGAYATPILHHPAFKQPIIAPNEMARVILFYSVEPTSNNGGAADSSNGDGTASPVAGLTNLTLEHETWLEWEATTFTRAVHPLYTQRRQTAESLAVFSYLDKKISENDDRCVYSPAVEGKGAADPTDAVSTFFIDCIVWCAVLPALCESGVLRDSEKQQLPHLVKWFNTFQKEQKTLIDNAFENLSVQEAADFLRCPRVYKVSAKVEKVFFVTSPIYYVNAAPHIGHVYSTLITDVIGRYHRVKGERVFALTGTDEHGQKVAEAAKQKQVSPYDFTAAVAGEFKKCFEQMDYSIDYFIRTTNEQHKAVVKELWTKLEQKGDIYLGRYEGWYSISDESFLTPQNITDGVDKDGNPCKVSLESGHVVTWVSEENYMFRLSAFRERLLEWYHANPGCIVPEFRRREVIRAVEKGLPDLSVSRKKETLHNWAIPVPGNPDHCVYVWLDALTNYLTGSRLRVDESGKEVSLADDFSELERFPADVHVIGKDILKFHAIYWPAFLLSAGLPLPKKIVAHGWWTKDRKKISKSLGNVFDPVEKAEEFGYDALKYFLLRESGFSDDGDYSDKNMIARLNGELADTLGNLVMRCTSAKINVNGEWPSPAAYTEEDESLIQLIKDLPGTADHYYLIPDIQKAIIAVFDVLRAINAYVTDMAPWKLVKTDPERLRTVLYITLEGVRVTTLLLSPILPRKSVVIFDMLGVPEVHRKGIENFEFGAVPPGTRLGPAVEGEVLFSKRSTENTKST

[8] = biological target: T3, Methionyl-tRNA synthetase, putative; assay type: functional, Trypanosoma brucei brucei strain 927/4 GUTat10.1; remark: listed apart in the source
[9] = Counterscreen for inhibitors of Trypanosoma brucei methionyl tRNA synthetase (MetRS): Luminescence-based cell-based high throughput dose response assay to identify compounds that are cytotoxic to Jurkat human T lymphocyte cells.; assay type: functional
[10] = viability loss in CEM21 cells – cell-based, CellTiter-Glo luminescence, cherry-picked, cytotoxicity control for viral fusion inhibitor project, dose response (AID 652042); assay type: functional;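 further: potency for signal decrease meaning cytotoxicity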
[11] = HIV-1 AD8 envelope cell-cell fusion blockers – cherry-pick, dose response (AID 652062); assay type: functional, cell-based;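 further: luciferase signal from cell-cell fusion driven by HIV-1 clade B AD8 Env; potency is for inhibitors of fusion seen as a drop in luminescence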
[12] = blockers of HIV-1 ZM109 envelope-driven cell-cell fusion – HeLa effector, CEM target cells, luciferase, cherry-pick, dose response (AID 652058); assay type: functional, cell-based;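 further: luciferase signal from HIV-1 Env mediated cell-cell fusion of effector and target cells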
[13] = off-target signal loss in HeLa-CEM21 co-culture – HeLa F-luc CTL cells, cherry-picked, counter-screen for HIV-1 Env fusion inhibitor project, dose response (AID 652040); assay type: functional, cell-based;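 further: potency for signal decrease marking cytotoxic or nonspecific inhibition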
HEK293 = assay: EBV LMP1 TES2 canonical NF-kB signalling blockers – cell-based, HEK293, luciferase, cherry-pick, dose response (AID 588343); assay type: functional; conditions: Homo sapiens
[14] = HGIII-sPLA2 enzyme inhibition potency – biochemical, QFRET, IC50, dose response (AID 743457);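 further: green fluorescence rise as the enzyme cleaves BODIPY PC-A2 in liposomes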
[15] = biological target: T4, Probable nicotinate-nucleotide adenylyltransferase (Staphylococcus aureus (strain N315), UniProt P65502); assay type: functional, Staphylococcus aureus subsp. aureus N315; conditions: read-out: IC50_Mean;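 on IC50 Mean: confirmatory dose-response retesting of NadD inhibitor hits first found in an ultra-high-throughput screen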
T4 sequence (P65502 whole entry): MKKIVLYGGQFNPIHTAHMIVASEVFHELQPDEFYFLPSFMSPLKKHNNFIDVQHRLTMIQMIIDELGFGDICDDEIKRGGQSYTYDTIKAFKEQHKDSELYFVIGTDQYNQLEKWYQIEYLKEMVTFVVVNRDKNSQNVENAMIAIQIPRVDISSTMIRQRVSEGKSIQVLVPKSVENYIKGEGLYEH

[16] = biological target: T5, Low molecular weight phosphotyrosine protein phosphatase (Homo sapiens, UniProt P24666); assay type: functional; conditions: read-out: IC50_Mean;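 further: Dose-response confirmation assay measuring inhibition of LMPTP enzyme activity by fluorescence intensity read-out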
T5 sequence (P24666 whole entry): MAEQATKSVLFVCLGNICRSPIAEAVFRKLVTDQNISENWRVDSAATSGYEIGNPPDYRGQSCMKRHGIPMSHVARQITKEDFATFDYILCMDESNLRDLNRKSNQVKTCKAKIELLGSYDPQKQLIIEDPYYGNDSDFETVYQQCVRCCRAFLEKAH

[17] = biological target: T4, Probable nicotinate-nucleotide adenylyltransferase; assay type: functional, Staphylococcus aureus subsp. aureus N315
[18] = viability of uninfected HEp-2 cells – cell-based, HTS, cytotoxicity control for RSV inhibitor project, dose response (AID 2410); assay type: functional; conditions: human respiratory syncytial virus
[19] = biological target: T6, Nuclear receptor subfamily 0 group B member 1 (Homo sapiens, UniProt P51843); assay type: functional, cell-based;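 further: HEK293T cells transfected with SF-1 and DAX-1 plus StAR promoter luciferase reporter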
T6 sequence (P51843 whole entry): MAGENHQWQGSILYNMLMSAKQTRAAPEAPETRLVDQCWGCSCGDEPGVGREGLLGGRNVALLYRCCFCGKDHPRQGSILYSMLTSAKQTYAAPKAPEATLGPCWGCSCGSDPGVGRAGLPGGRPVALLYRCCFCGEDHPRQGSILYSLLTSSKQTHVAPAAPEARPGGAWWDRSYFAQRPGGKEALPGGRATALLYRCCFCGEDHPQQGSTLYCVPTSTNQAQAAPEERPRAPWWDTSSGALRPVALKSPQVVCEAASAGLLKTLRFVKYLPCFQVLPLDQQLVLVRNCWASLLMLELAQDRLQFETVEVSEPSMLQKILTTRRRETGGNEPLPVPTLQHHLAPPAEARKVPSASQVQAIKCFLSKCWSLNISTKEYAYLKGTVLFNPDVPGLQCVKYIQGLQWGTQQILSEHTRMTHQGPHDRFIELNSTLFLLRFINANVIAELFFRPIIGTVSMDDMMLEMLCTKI

cells [20] = assay type: functional, cell-based; remark: listed apart in the source
[21] = Luminescence Cell-Based Dose Response HTS to Identify Activators of Luciferase Translation or Activity in H4 […] Cells. [Related pubchem assays: 1829 (Project Summary), 1814 (Primary HTS)]; assay type: functional
[22] = Luminescence Cell-Based Dose Confirmation HTS to Identify Activators of 5'UTR Stem-Loop Driven Alpha-Synuclein mRNA Translation in H4 Neuroglioblastoma Cells. [Related pubchem assays: 1829 (Project Summary), 1814 (Primary HTS)]; assay type: functional
[23] = Counterscreen for activators of the function of SWI/SNF related, matrix associated, actin dependent regulator of chromatin, subfamily a, member 2 (SMARCA2, BRM): Luminescence-based cell-based high throughput dose response assay to identify non-selective compounds using the VP16 reporter assay.; assay type: functional
H4 = assay: Luminescence Cell-Based Dose Response HTS to Identify Activators of 5'UTR Stem-Loop Driven Prion Protein mRNA Translation in H4 Neuroglioblastoma Cells. [Related pubchem assays: 1829 (Project Summary), 1814 (Primary HTS)]; assay type: functional; conditions: Homo sapiens
[24] = biological target: SWI/SNF-related matrix-associated actin-dependent regulator of chromatin subfamily A member 2 (Homo sapiens, UniProt P51531); assay: Luminescence-based cell-based high throughput dose response assay to identify activators of the function of SWI/SNF related, matrix associated, actin dependent regulator of chromatin, subfamily a, member 2 (SMARCA2, BRM).; assay type: functional
Chain of SWI/SNF-related matrix-associated actin-dependent regulator of chromatin subfamily A member 2 (P51531 whole entry): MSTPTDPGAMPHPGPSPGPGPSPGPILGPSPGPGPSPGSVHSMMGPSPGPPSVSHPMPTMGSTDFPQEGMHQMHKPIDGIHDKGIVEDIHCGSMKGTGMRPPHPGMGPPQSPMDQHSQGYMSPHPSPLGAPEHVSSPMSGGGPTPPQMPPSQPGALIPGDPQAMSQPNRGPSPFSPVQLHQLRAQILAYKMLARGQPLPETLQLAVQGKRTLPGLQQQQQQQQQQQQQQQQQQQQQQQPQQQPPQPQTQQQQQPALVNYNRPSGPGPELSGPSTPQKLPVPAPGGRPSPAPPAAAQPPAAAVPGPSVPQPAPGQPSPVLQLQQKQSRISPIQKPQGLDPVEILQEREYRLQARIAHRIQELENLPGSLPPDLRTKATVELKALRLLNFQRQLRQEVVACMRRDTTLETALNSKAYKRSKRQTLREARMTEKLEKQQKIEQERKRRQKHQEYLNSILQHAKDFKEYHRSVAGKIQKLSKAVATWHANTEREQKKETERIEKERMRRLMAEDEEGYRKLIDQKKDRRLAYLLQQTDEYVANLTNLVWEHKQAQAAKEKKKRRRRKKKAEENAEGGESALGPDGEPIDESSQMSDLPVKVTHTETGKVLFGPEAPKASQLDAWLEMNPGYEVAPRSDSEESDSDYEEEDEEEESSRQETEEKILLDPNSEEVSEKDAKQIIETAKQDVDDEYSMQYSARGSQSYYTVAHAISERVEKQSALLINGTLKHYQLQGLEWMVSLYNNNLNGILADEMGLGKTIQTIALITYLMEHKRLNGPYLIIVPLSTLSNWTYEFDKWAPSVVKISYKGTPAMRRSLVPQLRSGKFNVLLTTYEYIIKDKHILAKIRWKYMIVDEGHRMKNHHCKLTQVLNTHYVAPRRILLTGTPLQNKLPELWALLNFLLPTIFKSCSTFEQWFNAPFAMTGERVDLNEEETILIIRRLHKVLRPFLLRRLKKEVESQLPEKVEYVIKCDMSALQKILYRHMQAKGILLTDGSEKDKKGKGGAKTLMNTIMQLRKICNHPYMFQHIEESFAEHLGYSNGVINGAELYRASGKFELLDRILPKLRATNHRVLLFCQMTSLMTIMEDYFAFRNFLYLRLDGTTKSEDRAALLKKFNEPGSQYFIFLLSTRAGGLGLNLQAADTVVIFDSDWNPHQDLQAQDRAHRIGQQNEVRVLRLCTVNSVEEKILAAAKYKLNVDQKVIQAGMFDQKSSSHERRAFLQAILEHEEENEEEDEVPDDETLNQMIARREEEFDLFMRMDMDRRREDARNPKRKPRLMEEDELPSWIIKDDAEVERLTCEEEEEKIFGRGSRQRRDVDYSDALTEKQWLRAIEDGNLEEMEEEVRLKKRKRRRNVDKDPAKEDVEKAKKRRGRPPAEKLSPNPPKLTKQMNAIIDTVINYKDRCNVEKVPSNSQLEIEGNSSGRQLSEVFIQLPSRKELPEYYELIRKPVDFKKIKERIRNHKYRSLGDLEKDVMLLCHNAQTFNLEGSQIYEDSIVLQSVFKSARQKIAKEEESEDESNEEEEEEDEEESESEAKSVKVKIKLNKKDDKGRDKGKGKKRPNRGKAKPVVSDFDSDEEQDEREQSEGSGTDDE

[25] = viability loss in HeLa cells – cytotoxicity control for MgcRacGAP inhibitor project, dose response (AID 624300); assay type: functional
[26] = biological target: T7, Rac GTPase-activating protein 1 (Homo sapiens, UniProt Q9H0H5); assay: blockers of MgcRacGAP-driven Rac1 GTP hydrolysis – biochemical, ADP Hunter fluorescence, primary and confirmatory, confirmation (AID 624330); assay type: functional
T7 sequence (Q9H0H5 whole entry): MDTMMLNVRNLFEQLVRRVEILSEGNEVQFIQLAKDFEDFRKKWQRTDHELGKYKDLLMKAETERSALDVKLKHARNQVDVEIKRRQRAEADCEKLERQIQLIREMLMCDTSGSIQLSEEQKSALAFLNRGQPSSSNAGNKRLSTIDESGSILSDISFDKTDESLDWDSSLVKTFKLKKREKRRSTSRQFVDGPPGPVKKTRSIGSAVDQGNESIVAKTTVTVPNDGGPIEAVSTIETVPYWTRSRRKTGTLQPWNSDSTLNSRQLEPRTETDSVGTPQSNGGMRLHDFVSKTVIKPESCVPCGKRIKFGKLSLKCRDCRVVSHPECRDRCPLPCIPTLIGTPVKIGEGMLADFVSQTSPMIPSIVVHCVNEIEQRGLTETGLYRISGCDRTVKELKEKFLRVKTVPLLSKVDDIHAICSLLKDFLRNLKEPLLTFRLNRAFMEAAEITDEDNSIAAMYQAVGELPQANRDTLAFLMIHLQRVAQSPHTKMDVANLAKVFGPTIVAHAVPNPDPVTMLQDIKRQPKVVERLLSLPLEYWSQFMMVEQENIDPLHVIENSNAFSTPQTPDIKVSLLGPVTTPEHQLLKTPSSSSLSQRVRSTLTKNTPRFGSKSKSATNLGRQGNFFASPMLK

[27] = activation of miR-122 Renilla sensor silencing – cell-based, Huh7 psiCHECK-miR122, Renilla luciferase, cherry-picked, dose response (AID 651956); assay type: functional;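 further: huh7 hepatoma cells stably carrying a psiCHECK-2 miR-122 sensor plasmid; renilla luciferase signal reporting endogenous miR-122 activity after 48 h compound exposure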

C[C@H](C(=O)NC1CCCC1)N(C(=O)Cn1nnc(-c2ccc3c(c2)OCO3)n1)C1CCCCC1
AC50 [1]: 0.015 µM (active)
AC50 [2]: 12.1 nM (active)

c1ccc(CC/N=C2\CCCc3c2[nH]c2ccccc32)cc1
IC50 [3]: 0.341 µM (active)
EC50 [4]: 0.106 µM (active)
EC50 (cells [5]): > 29.9 µM (inactive)
IC50 (cells [6]): > 29.9 µM (inactive)

CCC[C@H]1CN(Cc2cccnc2)C(=O)[C@@H]1CC(=O)Nc1ccc(Br)cc1
IC50 [7]: 3.49 µM (active)
IC50 [8]: 8.41 µM (active)
IC50 [9]: 83.3 µM (inactive)

N=c1nc2n(cc1F)C1OC(CO)C(O)C1O2 (centres undefined)
AC50 [10]: 17.9 µM (active)
AC50 [11]: 0.699 µM (active)
AC50 [12]: < 0.26 µM (active)
AC50 [13]: < 0.26 µM (active)

NC(=S)NN=Cc1nccc2c(C(F)(F)C(F)(F)C(F)(F)F)cccc12
AC50 (HEK293): 0.643 µM (active)
IC50 [14]: 31.9 µM (inactive)

COc1ccccc1/C=C/C=N/NC(=O)c1cc(-c2ccco2)[nH]n1
IC50 [15]: 41.2 µM (active)
IC50 [16]: 80 µM (inactive)
IC50 [17]: 19.5 µM (active)

Cn1ncc(Cl)c1C(=O)Nc1ccc2c(c1)CCC2
CC50 [18]: 41.5 µM (active)
IC50 [19]: > 67.5 µM (inactive)
IC50 (cells [20]): > 67.5 µM (inactive)

Cn1cccc1CNCCc1ccccc1F
IC50 [3]: 8.12 µM (active)
EC50 [4]: 1.74 µM (active)
EC50 (cells [5]): > 29.9 µM (inactive)
IC50 (cells [6]): > 29.9 µM (inactive)

O=C(CNS(=O)(=O)c1ccccc1)OCC(=O)c1ccc(OC(=O)c2ccccc2)cc1
EC50 [21]: 11.7 µM (active)
EC50 [22]: > 120 µM (not active)
EC50 [23]: > 91.2 µM (inactive)
EC50 (H4): > 120 µM (not active)
EC50 [24]: > 91.2 µM (inactive)

COc1ccc(S(=O)(=O)N2CCCCC2)cc1NC(=O)CN(Cc1ccco1)Cc1ccco1
AC50 [10]: 68.8 µM (active)

CC(C)NC(=O)Nc1ccc2c(c1)C(=O)N([C@H](C)CO)C[C@@H](C)[C@H](CN(C)S(=O)(=O)c1ccc(Cl)cc1)O2
AC50 [1]: 0.0589 µM (active)
AC50 [2]: 163 nM (active) and 121 nM (active)

CCC(CC)NCc1ccc2c(c1)c1ccccc1n2CC
CC50 [25]: 100 µM (active)
IC50 [26]: 133 µM (active)

O=C(NN=C(S)Nc1cccc(Cl)c1)c1ccccc1OC(F)F
IC50 [14]: > 122 µM (inactive)

CCOc1ccc(NC(=S)N(CCCN2CCCC2)Cc2cccn2Cc2ccc(Cl)cc2)cc1
AC50 [27]: 46.1 µM (active)

Clc1ccc(-c2nc3ccc(Br)cn3c2Cc2ccsc2)cc1
IC50 [19]: > 67.5 µM (inactive)
IC50 (cells [20]): > 67.5 µM (inactive)
